Test results from patent US11774442B2, “Molecule sensor systems” (priority 2016, dated 2023).

Columns and labels:
PcaV = PcaV synthetic promoter/operator GFP reporter in E. coli; format: cell-based, Streptomyces coelicolor; details: E. coli harboring PcaV plasmid, grown in supplemented medium
Source text: As an example, Streptomyces coelicolor harbors an aTF, PcaV (SC06704), a member of the MarR family, which relieves repression on its operator in the presence of 3,4-dihydroxybenzoic acid. When the intergenic region between PcaV and Pcal was cloned into position to promote the expression of GFP on a plasmid which can be maintained in E. coli, no GFP expression was observed even though no known protein was present which could bind the operator site. […] Upon the introduction of the PcaV protein under a constitutive promoter, the GFP expression was suppressed. […] See FIG. 1, FIG. 2, FIG. 3, FIG. 21.

FapR = FapR GFP reporter in E coli; format: cell-based, Staphylococcus aureus; details: increasing concentrations
Source text: (§1) Staphylococcus aureus FapR responds to intracellular levels of malonyl-CoA. Cerulenin is an inhibitor of fatty acid biosynthesis and is known to increase the intracellular pool of malonyl-CoA at subtoxic concentrations.

E coli = assay: Toxicity in FapR chassis dose response (OD600 and fluorescence channels); format: cell-based; details: highest concentration
Source text: as §1

TtgR = target: T1, TtgR (Pseudomonas putida, UniProt Q88N29); assay: TtgR-GFP sensor-reporter system in E. coli, response to naringenin; format: cell-based; details: TtgR-binding synthetic operator promoter
T1 construct: Wild type of TtgR; expressed in transfected cells; host or cells: E. coli
Source text: TtgR regulates the TtgABC efflux pump in Pseudomonas putida, and responds to antibiotics such as chloramphenicol (Teran, et al) as well as the flavanones such as naringenin (Raman, et al).
See FIG. 8, FIG. 9, FIG. 10, FIG. 11, FIG. 13.

FadR = format: cell-based, Vibrio cholerae; details: E coli; increased levels

T1 sequence (Q88N29 whole entry): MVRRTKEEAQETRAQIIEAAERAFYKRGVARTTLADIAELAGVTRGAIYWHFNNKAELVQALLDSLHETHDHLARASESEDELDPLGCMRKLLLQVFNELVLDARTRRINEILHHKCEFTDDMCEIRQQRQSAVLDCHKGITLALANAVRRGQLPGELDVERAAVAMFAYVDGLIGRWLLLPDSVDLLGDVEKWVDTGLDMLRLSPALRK

For `O=C(O)c1ccc(O)c(O)c1` [3,4-dihydroxybenzoic acid], the GFP expression (PcaV) was “expression of GFP was observed”.

With `C/C=C/C/C=C/CCC(=O)[C@H]1O[C@H]1C(N)=O` [cerulenin] the GFP reporter expression (FapR) was “increased expression of a GFP reporter” and the toxicity (E coli) was “toxicity at highest concentration”.

For `O=C1C[C@@H](c2ccc(O)cc2)Oc2cc(O)cc(O)c21` [naringenin], the GFP expression (TtgR) was “drive GFP expression”.

`CCCCCCCC/C=C\CCCCCCCC(=O)O` [oleic acid] was tested, and the GFP reporter expression (FadR) was “driving expression of a GFP reporter”.
